Laboratory results reported in publication PMC7465821, “Isolation of Three Lycorine Type Alkaloids from Rhodolirium speciosum (Herb.) Ravenna Using pH-Zone-Refinement Centrifugal Partition Chromatography and Their Acetylcholinesterase Inhibitory Activities” (Metabolites, 2020).

Target: acetylcholinesterase (AChE) (Electrophorus electricus, UniProt O42275)
Assay: Ellman spectrophotometric microplate assay, […] nm
Assay type: biochemical

Chain of acetylcholinesterase (AChE) (O42275 24-633): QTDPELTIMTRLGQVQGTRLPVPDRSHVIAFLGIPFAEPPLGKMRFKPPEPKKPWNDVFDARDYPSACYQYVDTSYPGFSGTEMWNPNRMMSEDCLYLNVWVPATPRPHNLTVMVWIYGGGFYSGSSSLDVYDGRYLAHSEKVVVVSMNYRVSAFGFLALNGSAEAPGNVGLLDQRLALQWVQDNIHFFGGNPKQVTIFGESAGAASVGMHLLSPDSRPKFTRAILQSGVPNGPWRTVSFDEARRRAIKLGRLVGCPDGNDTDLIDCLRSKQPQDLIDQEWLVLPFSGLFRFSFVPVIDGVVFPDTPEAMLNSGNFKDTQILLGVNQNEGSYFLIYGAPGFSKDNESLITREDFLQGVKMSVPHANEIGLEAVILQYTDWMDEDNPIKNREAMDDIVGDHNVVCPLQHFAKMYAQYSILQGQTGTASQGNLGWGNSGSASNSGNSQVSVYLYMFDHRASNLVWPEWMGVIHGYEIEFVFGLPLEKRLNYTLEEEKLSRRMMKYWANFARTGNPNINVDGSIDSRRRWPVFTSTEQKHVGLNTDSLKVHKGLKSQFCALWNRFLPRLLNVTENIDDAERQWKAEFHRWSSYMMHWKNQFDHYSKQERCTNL

Row | SMILES | IC50 [µM]
1 | CC(=O)O[C@H]1[C@H]2c3cc4c(cc3C=[N+]3CCC(=C[C@@H]1O)[C@H]23)OCO4 [compound 1, 1-O-acetyl-5,6-dehydrolycorine] | 620
2 | CC(=O)O[C@H]1[C@H]2c3cc4c(cc3CN3CCC(=C[C@@H]1O)[C@H]23)OCO4 [compound 2, 1-O-acetyl-lycorine] | 1430
3 | CC(=O)OC1[C@@H](OC(C)=O)C=C2CC[N+]3=Cc4cc5c(cc4[C@H]1[C@@H]23)OCO5 (stereo partly drawn) [compound 3, 1,2-O-diacetyl-5,6-dehydrolycorine] | 46.3
